Experimental data taken from US20030203969A1, “Pharmaceutically active aromatic guanylhydrazones” (priority 2000, published 2003).

What was measured:
P3HR-1 cells = experiment: Compound toxicity in P3HR-1 cells (Cell Titer Aqueous One); assay type: cell-based, human; settings: P3HR1 cells; read-out: TC50 (the source's name)
Protocol: (§1) Human P3HR-1 cells are latently infected with EBV. Culturing these cells in the presence of phorbol ester induces a lytic infection cycle, resulting in stimulation of viral replication within the cells. Compound efficacy in this assay is determined using TaqMan PCR technology, and compound toxicity is measured by addition of Promega's Cell Titer Aqueous One Solution (metabolic dye).
6. Duplicate plates are set up plating media in place of TPA for evaluation of compound toxicity.
6. Twenty micorliters of Cell Titer Aqueous One Solution (Promega) is added to each well of the toxicity plates. Plates are incubated at 37° C. in a humidified CO2 incubator for 4 hours or until sufficient color development has occurred. Plates are read on a VMax microtiter plate reader at a wavelength of 490/650 nm. Toxicity of the test compound is determined by comparing the optical density of test wells with that of control wells.

NNRTI-resistant HIV-1 = experiment: Inhibition of multiple anti-retroviral drug resistant HIV-1 strains: NNRTI-resistant; assay type: cell-based
Protocol: In addition, various different “types” of multiple anti-retroviral drug resistant HIV-1 strains were also tested: […]

HepG2-2.2.15 cells = experiment: Cell viability of HepG2-2.2.15 cells (dye uptake); assay type: cell-based, human; settings: inhibits cell growth by 50%, read-out: TC50 (the source's name)
Protocol: (§2) Human HepG2-2.2.15 cells (ATCC Cat. No. CRL-11997), chronically infected with HBV, are plated in 96-well microtiter plates in DMEM medium supplemented with fetal bovine serum. After incubation at 37° C. in a humidified, 5% CO2 environment for 16-24 hours, the monolayer of HepG2-2.2.15 cells is washed and the medium is replaced with complete medium containing various concentrations of test compound. Every three days during the experiments, the culture medium is replaced with fresh medium containing the appropriately diluted test compound. Six days following the initial administration of the test compound, the cell culture supernatant is collected and clarified by centrifugation. The cell viability is evaluated by a dye uptake procedure (Promega's Cell Titer Aqueous One Solution). Virion-associated HBV DNA present in the tissue culture supernatant is amplified employing PCR technology using primer pairs derived from the HBV strain ayw. Subsequently, the PCR-amplified HBV DNA is detected in real-time by monitoring increases in fluorescence signals that result from exonucleolytic degradation of a quenched fluorescent probe molecule following hybridization of the probe to the amplified HBV DNA (TaqMan; Perkin-Elmer).

EBV = EBV replication in TPA-induced P3HR-1 cells (TaqMan PCR); assay type: cell-based, Epstein-Barr virus
Protocol: as §1
1. P3HR-1 cells are counted by the trypan blue dye exclusion method, and the cell count/ml is determined. Cells are pelleted by centrifugation and washed once with PBS to minimize the basal level of virus released from untreated cells which spontaneously enter the lytic cycle and release virus.
2. Cells are resuspended in fresh media and adjusted to the appropriate cell density. Cells are then plated in the interior wells of 96-well round-bottom microtiter plates in a volume of 50 μl per well.
3. The phorbol ester TPA is added to appropriate wells in a volume of 50 μl per well to yield a final concentration of 15 ng/ml. Medium is added in place of TPA in three wells to serve as a negative control.
4. […]
5. A standard curve prepared from known copy numbers of DNA isolated from P3HR-1 cells and amplified is run with each plate in order to quantitate the DNA copy number in each original sample. The efficacy of the compound is determined by comparing DNA copy numbers from test wells with those of control wells.

[1] = target: T1, deoxyhypusine synthase (DHS) (Homo sapiens, UniProt P49366); experiment: In vitro DHS screening assay (hypusine formation on eIF-5A); assay type: biochemical
T1 construct: made in house; host or cells: E. coli BL21 (DE3), pGex vector
T1 sequence (P49366 1-369): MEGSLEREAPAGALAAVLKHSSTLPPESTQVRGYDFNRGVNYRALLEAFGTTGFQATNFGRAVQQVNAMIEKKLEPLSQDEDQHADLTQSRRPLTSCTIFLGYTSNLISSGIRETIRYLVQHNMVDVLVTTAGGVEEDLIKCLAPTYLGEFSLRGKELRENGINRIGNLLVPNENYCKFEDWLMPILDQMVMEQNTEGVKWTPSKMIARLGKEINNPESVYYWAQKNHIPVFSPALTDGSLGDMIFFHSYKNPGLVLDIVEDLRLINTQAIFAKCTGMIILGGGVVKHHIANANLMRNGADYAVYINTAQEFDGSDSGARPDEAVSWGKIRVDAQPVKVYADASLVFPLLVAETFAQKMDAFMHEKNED

HepG2 cells = assay type: cell-based, human; settings: Lamivudine-resistant HBV experiment, read-out: TC50 (the source's name)
Protocol: as §2
The same type of experiments was additionally performed with a mutant, Lamivudine-resistant HBV strain, which was transfected into HepG2 cells.

CC(=NNC(=N)N)c1cc(NC(=O)CCCCCCCCC(=O)Nc2cc(C(C)=NNC(=N)N)cc(C(C)=NNC(=N)N)c2)cc(C(C)=NNC(=N)N)c1 [Compound 4, N,N′-bis (3,5-diacetylphenyl) decane diamide tetrakis (amidinohydrazone)]
CC50 (P3HR-1 cells): 21.8 µM | [%] inhibition of virus replication (NNRTI-resistant HIV-1; NNRTI-resistant HIV-1, 0.5 μM): 71% | [%] inhibition of virus replication (NNRTI-resistant HIV-1; NNRTI-resistant HIV-1, 1.0 μM): 82% | CC50 (HepG2-2.2.15 cells): > 20 µM | Comments (EBV; EBV, P3HR1 cells): Significant Activity | IC50 (EBV; EBV-infected P3HR1 cells, day 4): 2.3 µM | inhibition of the hypusine formation on the elF-5A protein [1]: potent inhibitors | CC50 (HepG2 cells): 24.7 µM
